Data taken from patent US7888343B2, “Substituted, bicyclic 8-pyrrolidinoxanthines, and methods for their use as inhibitors of dipeptidyl peptidase” (Sanofi-A Ventis Deutschland GmbH, priority 2004, dated 2011).
Structures can show the parent of a compound that is named as a salt.

System: not given
Assay: not given
Conditions: not given

Row | melting point [°C] | Compound
1 | 73.5 | CC(C)=CCn1c(N2CC[C@@H]3CN(C)C[C@@H]32)nc2c1c(=O)n(CC(=O)c1ccccc1)c(=O)n2C (relative stereo) [Example 2, 3-Methyl-7-(3-methylbut-2-enyl)-8-(cis-5-methylhexahydropyrrolo[3,4-b]pyrrole-1-yl)-1-(2-oxo-2-phenylethyl)-3,7-dihydropurine-2,6-dione]

Biological target: T1, DPP-IV from porcine kidney (Sus scrofa, UniProt P22411)
T1 construct: DPP-IV from porcine kidney (Sigma, Munich); purchased Sigma, Munich; host or cells: porcine kidney (tissue-derived enzyme)
Assay: Measurement of the DPP-IV activity (fluorimetric H-Ala-Pro-AFC conversion)
Format: biochemical
Conditions: DPP-IV 1 mU/ml, H-Ala-Pro-AFC 15 μM, Tris/HCl 40 mM pH 7.4, room temperature
Experimental: The reaction was carried out at room temperature for various times (typically 10 min) and stopped at the end of the reaction by adding 20 μl of ZnCl2(1 M). […] When inhibitors were added, the added buffer volume was adapted so that a total volume of 200 μl was maintained for the assay mixture.

T1 sequence (P22411 whole entry): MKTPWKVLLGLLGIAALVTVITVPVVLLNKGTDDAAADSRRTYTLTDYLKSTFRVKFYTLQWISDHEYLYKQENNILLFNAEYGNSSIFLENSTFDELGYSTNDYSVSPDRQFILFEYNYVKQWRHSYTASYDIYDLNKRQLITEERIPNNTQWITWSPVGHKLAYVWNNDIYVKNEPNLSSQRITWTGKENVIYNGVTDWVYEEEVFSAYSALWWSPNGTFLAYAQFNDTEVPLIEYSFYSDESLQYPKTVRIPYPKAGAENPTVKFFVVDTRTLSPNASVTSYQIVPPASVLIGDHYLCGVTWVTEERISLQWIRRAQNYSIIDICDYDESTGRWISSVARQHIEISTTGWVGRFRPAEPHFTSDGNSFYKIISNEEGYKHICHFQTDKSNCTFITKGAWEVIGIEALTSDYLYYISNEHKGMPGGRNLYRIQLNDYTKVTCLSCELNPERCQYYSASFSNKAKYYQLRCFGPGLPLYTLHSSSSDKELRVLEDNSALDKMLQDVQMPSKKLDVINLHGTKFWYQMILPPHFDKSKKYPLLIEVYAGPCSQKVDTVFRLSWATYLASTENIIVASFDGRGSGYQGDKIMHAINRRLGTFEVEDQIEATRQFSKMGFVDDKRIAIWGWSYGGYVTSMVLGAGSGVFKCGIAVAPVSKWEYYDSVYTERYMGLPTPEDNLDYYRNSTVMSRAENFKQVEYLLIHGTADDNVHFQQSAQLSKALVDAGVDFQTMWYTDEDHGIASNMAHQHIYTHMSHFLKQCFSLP

Row | IC50 [µM] | Compound
2 | 0.05 | CC(C)=CCn1c(N2CCC3CNCC32)nc2c1c(=O)n(CC(=O)c1ccccc1)c(=O)n2CC(F)(F)F (stereo not shown) [Example 35, 8-(Hexahydropyrrolo[3,4-b]pyrrol-1-yl)-7-(3-methylbut-2-enyl)-1-(2-oxo-2-phenylethyl)-3-(2,2,2-trifluoroethyl)-3,7-dihydropurine-2,6-dione hydrochloride]
3 | 0.01 | CC(C)=CCn1c(N2CCC3CNCC32)nc2c1c(=O)n(CC(=O)c1cccc(Cl)c1)c(=O)n2C (stereo not shown) [Example 42, 1-[2-(3-Chlorophenyl)-2-oxo-ethyl]-8-(hexahydropyrrolo[3,4-b]pyrrol-1-yl)-3-methyl-7-(3-methylbut-2-enyl)-3,7-dihydropurine-2,6-dione]
4 | 0.005 | CCn1c(=O)n(CC(=O)c2ccccc2)c(=O)c2c1nc(N1CCC3CNCC31)n2CC=C(C)C (stereo not shown) [Example 15, 3-Ethyl-8-(hexahydropyrrolo[3,4-b]pyrrol-1-yl)-7-(3-methylbut-2-enyl)-1-(2-oxo-2-phenyl-ethyl)-3,7-dihydropurine-2,6-dione hydrochloride]
5 | 0.012 | CC(C)=CCn1c(N2CCC3CNCC32)nc2c1c(=O)n(CC(O)c1ccccc1)c(=O)n2C (stereo not shown) [Example 14, 8-(Hexahydropyrrolo[3,4-b]pyrrol-1-yl)-1-(2-hydroxy-2-phenylethyl)-3-methyl-7-(3-methyl-but-2-enyl)-3,7-dihydropurine-2,6-dione hydrochloride]
6 | 0.0105 | CC(C)=CCn1c(N2CCC3CNCC32)nc2c1c(=O)n(CC(=O)c1ccccc1Cl)c(=O)n2C (stereo not shown) [Example 41, 1-[2-(2-Chlorophenyl)-2-oxo-ethyl]-8-(hexahydropyrrolo[3,4-b]pyrrol-1-yl)-3-methyl-7-(3-methylbut-2-enyl)-3,7-dihydropurine-2,6-dione trifluoroacetate]

Second part, the molecule before the results:

Row | Compound | IC50 [µM]
7 | CC(C)=CCn1c(N2CCC3CNCC32)nc2c1c(=O)n(Cc1nc3cc(F)ccc3s1)c(=O)n2C (stereo not shown) [Example 16, 1-(5-Fluorobenzothiazol-2-ylmethyl)-8-(hexahydropyrrolo[3,4-b]pyrrol 1-yl)-3-methyl-7-(3-methylbut-2-enyl)-3,7-dihydropurine-2,6-dione hydrochloride] | 0.019
8 | CC(C)=CCn1c(N2CCC3CNCC32)nc2c1c(=O)n(CCc1ccccc1)c(=O)n2C1CC1 (stereo not shown) [Example 21, 3-Cyclopropyl-8-(hexahydropyrrolo[3,4-b]pyrrol-1-yl)-7-(3-methylbut-2-enyl)-1-phenethyl-3,7-dihydropurine-2,6-dione hydrochloride] | 0.071
9 | Cn1c(=O)n(CC(=O)c2ccccc2)c(=O)c2c1nc(N1CCC3CNCC31)n2Cc1ccccc1 (stereo not shown) [Example 5, 7-Benzyl-8-(hexahydropyrrolo[3,4-b]pyrrol-1-yl)-3-methyl-1-(2-oxo-2-phenylethyl)-3,7-dihydropurine-2,6-dione hydrochloride] | 0.0072
10 | Cn1c(=O)c2c(nc(N3CCC4CNCC43)n2Cc2ccccc2Cl)n(C)c1=O (stereo not shown) [Example 97, 7-(2-Chlorobenzyl)-8-(hexahydropyrrolo[3,4-b]pyrrol-1-yl)-1,3-dimethyl-3,7-dihydropurine-2,6-dione trifluoroacetate] | 0.02
